Values quoted from earlier work as cited in patent US20030225129A1, “Polymorphs of clopidogrel hydrogensulfate” (priority 2002, published 2003).

What was measured:
[1] = in vivo
platelet activity = conditions: after administration

COC(=O)[C@H](c1ccccc1Cl)N1CCc2sccc2C1 [clopidogrel, methyl (+)-(S)-∝-(o-chlorophenyl)-6,7-dihydrothieno[3,2-c]pyridine-5(4H)-acetate]
gastrointestinal bleeding relative to aspirin [1]: much less gastrointestinal bleeding than aspirin
duration of antiplatelet activity (platelet activity): up to ten days after administration
effectiveness relative to aspirin at stated dosages (platelet aggregation; 75 mg of base equivalent versus 325 mg of aspirin): more effective
effectiveness in blocking platelet aggregation relative to aspirin (platelet aggregation; versus aspirin, even at much lower dosage): more effective in blocking platelet aggregation than aspirin
